Assay results: patent US20080269237A1, “CARBAMIC ACID COMPOUNDS COMPRISING A PIPERAZINE LINKAGE AS HDAC INHIBITORS” (TOPOTARGET UK LIMITED, priority 2002, published 2008)
Where a name gives a salt, the structure may show the parent alone.

First: COc1ccc2[nH]cc(CCN3CCN(C(=O)CCCCCCC(=O)NO)CC3)c2c1.O=C(O)C(=O)O
Second: O=C(CCCCCC(=O)N1CCN(CCCc2c[nH]c3ccccc23)CC1)NO [PX118970, N-Hydroxy-7-{4-[3-(1H-indol-3-yl)propyl]-1-piperazinyl}-7-oxoheptanamide]
The melting point of the first is lower: 122 to 125 °C for the first, 165 to 166 °C for the second.

Compared with O=C(CCCCCC(=O)N1CCN(c2ccccn2)CC1)NO (as salt: oxalate) [PX118845, 7-Oxo-7-(4-pyridin-2-yl-piperazin-1-yl]-heptanoic acid hydroxyamide oxalate], O=C(CCCCCCC(=O)N1CCN(c2ccccc2)CC1)NO [PX117402, 8-Oxo-8-(4-phenyl-piperazin-1-yl)-octanoic acid hydroxyamide] is higher in melting point: 118 to 122 °C for the first, 134 to 136 °C for the second.

First: O=C(CCCCCCC(=O)N1CCN(c2cccc(F)c2)CC1)NO [PX118859, 8-[4-(3-Fluorophenyl)-piperazin-1-yl]-8-oxooctanoic acid hydroxyamide]
Second: O=C(CCCCCCC(=O)N1CCN(c2cccc(C(F)(F)F)c2)CC1)NO [PX118860, 8-Oxo-8-[4-(3-trifluoromethylphenyl)-piperazin-1-yl]-octanoic acid hydroxyamide]
The melting point of the first is higher: 149 to 150.5 °C for the first, 126 to 128 °C for the second.

First: O=C(/C=C/c1cccc(S(=O)(=O)N2CCN(C/C=C/c3ccccc3)CC2)c1)NO [PX118870, (E)-N-Hydroxy-3-[3-({4-[(E)-3-phenyl-2-propenyl]-1-piperazinyl}sulfonyl)phenyl]-2-propenamide]
Second: O=C(/C=C/c1cccc(S(=O)(=O)N2CCN(Cc3ccccc3)CC2)c1)NO [PX118874, (E)-3-{3-[(4-Benzyl-1-piperazinyl)sulfonyl]phenyl}-N-hydroxy-2-propenamide]
The melting point of the first is lower: 178 °C for the first, 185 °C for the second.

First: COc1cccc(N2CCN(S(=O)(=O)c3cccc(/C=C/C(=O)NO)c3)CC2)c1 [PX118872, (E)-N-hydroxy-3-(3-{[4(3-methoxyphenyl)piperazinyl]sulfonyl}phenyl)-2-propenamide]
Second: COc1cccc(N2CCN(S(=O)(=O)c3ccc(/C=C/C(=O)NO)cc3)CC2)c1 [PX118892, (E)-N-Hydroxy-3-(4-{[4-(3-methoxyphenyl)-1-piperazinyl]sulfonyl}phenyl)-2-propenamide]
The melting point of the first is lower: 196 °C for the first, 199 to 200 °C for the second.

Compared with O=C(/C=C/c1cccc(S(=O)(=O)N2CCN(Cc3ccc4c(c3)OCO4)CC2)c1)NO [PX118873, (E)-3-(3-{[4-(1,3-Benzodioxol-5-ylmethyl)-1-piperazinyl]sulfonyl}-phenyl)-N-hydroxy-2-propenamide], CN(C)c1ccc(CCN2CCN(S(=O)(=O)c3cccc(/C=C/C(=O)NO)c3)CC2)cc1 [PX118951, (E)-3-[3-({4-[4-(Dimethylamino)phenethyl]-1-piperazinyl}sulfonyl)phenyl]-N-hydroxy-2-propenamide] is higher in melting point: 172 °C for the first, 189 °C for the second.

First: O=C(/C=C/c1cccc(S(=O)(=O)N2CCN(c3ccccc3F)CC2)c1)NO [PX118877, (E)-3-(3-{[4-(2-Fluorophenyl)-1-piperazinyl]sulfonyl}phenyl)-N-hydroxy-2-propenamide]
Second: O=C(/C=C/c1ccc(S(=O)(=O)N2CCN(c3ccccc3F)CC2)cc1)NO [PX118891, (E)-3-(4-{[4-(2-Fluorophenyl)-1-piperazinyl]sulfonyl}phenyl)-N-hydroxy-2-propenamide]
The melting point of the first is lower: 176 °C for the first, 196 to 197 °C for the second.

Compared with O=C(/C=C/c1cccc(S(=O)(=O)N2CCN(c3cccc(C(F)(F)F)c3)CC2)c1)NO [PX118878, (E)-N-Hydroxy-3-[3-({4-[3-(trifluoromethyl)phenyl]-1-piperazinyl}sulfonyl)phenyl]-2-propenamide], O=C(/C=C/c1ccc(S(=O)(=O)N2CCN(c3cccc(C(F)(F)F)c3)CC2)cc1)NO [PX118937, (E)-N-Hydroxy-3-[4-({4-[3-(trifluoromethyl)phenyl]-1-piperazinyl}-sulfonyl)phenyl]-2-propenamide] is higher in melting point: 173 °C for the first, 178 to 179 °C for the second.

Going from O=C(/C=C/c1cccc(S(=O)(=O)N2CCN(c3ncccn3)CC2)c1)NO [PX118894, (E)-N-Hydroxy-3-(3{-[4-(2-pyrimidinyl)-1-piperazinyl]sulfonyl}-phenyl)-2-propenamide] to O=C(/C=C/c1cccc(S(=O)(=O)N2CCN(c3ccc(Cl)c(Cl)c3)CC2)c1)NO [PX118971, (E)-3-(3-{[4-(3,4-Dichlorophenyl)-1-piperazinyl]sulfonyl}phenyl)-N-hydroxy-2-propenamide], the melting point falls from 200 °C to 193 °C.

Compared with Cc1cccc(N2CCN(C(=O)CCCCCCC(=O)NO)CC2C)c1 (stereo not shown) [PX118899, 8-(3-Methyl-4-m-tolyl-piperazin-1-yl)-8-oxo octanoic acid hydroxyamide], Cc1ccc(N2CCN(C(=O)CCCCCC(=O)NO)CC2)cc1C [PX118994, 7-[4-(3,4-Dimethylphenyl)-1-piperazinyl]-N-hydroxy-7-oxoheptanamide] is higher in melting point: 75 to 76 °C for the first, 119.5 to 120.5 °C for the second.

First: C/C(=N\O)c1ccc(N2CCN(C(=O)CCCCCCC(=O)NO)CC2)cc1 [PX118903, 8-{4-[4-(1-Hydroxyimino-ethyl)-phenyl]-piperazin-1-yl}-8-oxo octanoic acid hydroxyamide]
Second: O=C(CCCCCC(=O)N1CCN(c2ccc(F)cc2)CC1)NO [PX118990, 7-[4-(4-Fluorophenyl)-1-piperazinyl]-N-hydroxy-7-oxoheptanamide]
The melting point of the first is higher: 147 to 147.5 °C for the first, 119 to 120 °C for the second.

First: O=C(CCCCCCC(=O)N1CCN(CCc2ccc3ccccc3c2)CC1)NO [PX118908, 8-[4-(2-Naphthalen-2-yl-ethyl)-piperazin-1-yl]-8-oxo octanoic acid hydroxyamide]
Second: O=C(CCCCCCC(=O)N1CCN(C(=O)COc2ccc3ccccc3c2)CC1)NO [PX118929, N-Hydroxy-8-{4-[2-(2-naphthyloxy)acetyl]-1-piperazinyl}-8-oxooctanamide]
The melting point of the first is lower: 118 to 120 °C for the first, 139 to 140.5 °C for the second.

First: O=C(CCCCCCC(=O)N1CCN(CC(c2ccccc2)c2ccccc2)CC1)NO [PX118909, 8-[4-(2,2-Diphenyl-ethyl)-piperazin-1-yl]-8-oxo octanoic acid hydroxyamide]
Second: O=C(CCCCCC(=O)N1CCN(Cc2c[nH]c3ccccc23)CC1)NO [PX118978, N-Hydroxy-7-[4-(1H-indol-3-ylmethyl)-1-piperazinyl]-7-oxoheptanamide]
The melting point of the first is higher: 117 to 118 °C for the first, 65 to 67 °C for the second.

First: O=C(/C=C/c1cccc(S(=O)(=O)N2CCN(CCc3ccc4ccccc4c3)CC2)c1)NO [PX118914, (E)-N-Hydroxy-3-[3-({4-[2-(2naphthyl)ethyl]-1-piperazinyl}sulfonyl)phenyl]-2-propenamide]
Second: O=C(/C=C/c1cccc(S(=O)(=O)N2CCN(CCOc3ccc4ccccc4c3)CC2)c1)NO [PX118935, (E)-N-Hydroxy-3-[3-({4-[2-(2-naphthyloxy)ethyl]-1-piperazinyl}-sulfonyl)phenyl]-2-propenamide]
The melting point of the first is higher: 184 °C for the first, 130 °C for the second.

First: O=C(/C=C/c1ccc(S(=O)(=O)N2CCN(c3ccc([N+](=O)[O-])cc3)CC2)cc1)NO [PX118918, (E)-N-Hydroxy-3-(4-{[4-(4-nitrophenyl)-1-piperazinyl]sulfonyl}phenyl)-2-propenamide]
Second: O=C(/C=C/c1cccc(S(=O)(=O)N2CCN(c3ccc(Cl)cc3)CC2)c1)NO [PX118972, (E)-3-(3-{[4-(4-Chlorophenyl)-1-piperazinyl]sulfonyl}phenyl)-N-hydroxy-2-propenamide]
The melting point of the first is lower: 199 to 200 °C for the first, 215 °C for the second.

Compared with CN(C)c1ccc(CCN2CCN(C(=O)CCCCCCC(=O)NO)CC2)cc1 [PX118928, 8-{4-[4-(Dimethylamino)phenethyl]-1-piperazinyl}-N-hydroxy-8-oxooctanamide], O=C(CCCCCC(=O)N1CCN(c2ccc(Cl)cc2)CC1)NO [PX118991, 7-[4-(4-Chlorophenyl)-1-piperazinyl]-N-hydroxy-7-oxoheptanamide] is higher in melting point: 103 to 105 °C for the first, 119 to 121 °C for the second.

Compared with O=C(/C=C/c1cccc(S(=O)(=O)N2CCN(CCOc3cccc4ccccc34)CC2)c1)NO [PX118934, (E)-N-Hydroxy-3-[3-({4-[2-(1-naphthyloxy)ethyl]-1-piperazinyl}-sulfonyl)phenyl]-2-propenamide], O=C(/C=C/c1ccc(S(=O)(=O)N2CCN(C(c3ccc(F)cc3)c3ccc(F)cc3)CC2)cc1)NO [PX118965, (E)-3-[4-({4-[Bis(4-fluorophenyl)methyl]-1-piperazinyl}sulfonyl)phenyl]-N-hydroxy-2-propenamide] is lower in melting point: 178 °C for the first, 125 to 126 °C for the second.

First: O=C(CCCCCCC(=O)N1CCN(C(=O)Cc2csc3ccccc23)CC1)NO [PX118967, 8-{4-[2-(1-Benzothiophen-3-yl)acetyl]-1-piperazinyl}-N-hydroxy-8-oxooctanamide]
Second: O=C(CCCCCC(=O)N1CCN(C(=O)CCc2c[nH]c3ccccc23)CC1)NO [PX118968, N-Hydroxy-7-{4-[3-(1H-indol-3-yl)propanoyl]-1-piperazinyl}-7-oxoheptanamide]
The melting point of the first is lower: 140 to 141 °C for the first, 152.5 to 153.5 °C for the second.

First: O=C(CCCCCC(=O)N1CCN(C(=O)c2c[nH]c3ccccc23)CC1)NO [PX118969, N-Hydroxy-7-[4-(1H-indol-3-ylcarbonyl)-1-piperazinyl]-7-oxoheptanamide]
Second: O=C(CCCCCC(=O)N1CCN(c2ccc(Cl)c(Cl)c2)CC1)NO [PX118989, 7-[4-(3,4-Dichlorophenyl)-1-piperazinyl]-N-hydroxy-7-oxoheptanamide]
The melting point of the first is lower: 86 to 88 °C for the first, 125 to 126 °C for the second.

For O=C(/C=C/c1cccc(S(=O)(=O)N2CCN(CC(c3ccccc3)c3ccccc3)CC2)c1)NO [PX118913, (E)-3-(3-{[4-(2,2-Diphenylethyl)-1-piperazinyl]sulfonyl}phenyl)-N-hydroxy-2-propenamide], the melting point was 117 °C (dec.).
In the case of C=C(Cl)c1ccc(N2CCN(S(=O)(=O)c3cccc(/C=C/C(=O)NO)c3)CC2)cc1 [PX118933, (E)-3-[3-({4-[4-(1-Chlorovinyl)phenyl]-1-piperazinyl}sulfonyl)phenyl]-N-hydroxy-2-propenamide], the melting point is reported as 203 °C (dec.).
